Experimental data published in US6667313B1, “8-substituted-6-triflouromethyl-9-pyrido [3,2-G] quinoline compounds as androgen receptor modulators” (Ligand Pharmaceuticals Inc., priority 1999, dated 2003).

Key:
ER [1] = biological target: T1, ER (Homo sapiens, UniProt P03372); assay: Co-transfection assay, ER agonist; assay type: cell-based; details: Table 2; read-out: ER Potency Agon
T1 construct: expressed in transfected cells; host or cells: CV-1 cells (inferred: the only cells described for the co-transfection assay)
T1 sequence (P03372 1-595): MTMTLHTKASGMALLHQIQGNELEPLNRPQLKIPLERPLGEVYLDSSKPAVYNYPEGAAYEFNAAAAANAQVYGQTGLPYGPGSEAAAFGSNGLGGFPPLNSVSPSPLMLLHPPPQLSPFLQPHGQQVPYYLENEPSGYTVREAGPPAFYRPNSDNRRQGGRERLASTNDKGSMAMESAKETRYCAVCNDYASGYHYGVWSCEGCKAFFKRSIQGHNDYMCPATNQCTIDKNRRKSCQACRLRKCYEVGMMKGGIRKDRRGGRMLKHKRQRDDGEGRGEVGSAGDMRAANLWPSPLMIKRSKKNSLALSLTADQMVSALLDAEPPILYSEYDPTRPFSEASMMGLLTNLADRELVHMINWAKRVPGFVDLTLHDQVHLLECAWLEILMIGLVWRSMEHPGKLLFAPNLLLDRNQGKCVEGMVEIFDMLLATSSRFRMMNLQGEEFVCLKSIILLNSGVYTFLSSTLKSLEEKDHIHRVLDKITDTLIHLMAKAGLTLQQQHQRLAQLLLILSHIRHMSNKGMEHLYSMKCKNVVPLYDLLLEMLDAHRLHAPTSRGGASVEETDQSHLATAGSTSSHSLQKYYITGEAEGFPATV

ER [2] = biological target: T1, ER; assay: Co-transfection assay, ER antagonist; assay type: cell-based; details: Table 2; read-out: ER Potency Antag

## CC(C)(O)C(=O)Nc1ccc([N+](=O)[O-])c(C(F)(F)F)c1 [Flut]
ER [1]
  EC50: > 10 µM
ER [2]
  IC50: > 10 µM
